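A five-concentration, 48-hour dose response in 96-well plates underlies each endpoint, interpolated linearly between surrounding concentrations. TGI marks complete inhibition of growth.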
Key:
Test in all cases: NCI tumour cell line growth inhibition, 48 h
SF-268 CNS = test system: SF-268 CNS
KM12 colon = test system: KM12 colon
SNB-75 CNS = test system: SNB-75 CNS
KM20L2 colon = test system: KM20L2 colon
MALME-3M melanoma = test system: MALME-3M melanoma
OVCAR-8 ovarian = test system: OVCAR-8 ovarian
HCT-15 colon = test system: HCT-15 colon
NCI/ADR-RES ovarian = test system: NCI/ADR-RES ovarian
A498 renal = test system: A498 renal
SK-MEL-28 melanoma = test system: SK-MEL-28 melanoma
HCT-116 colon = test system: HCT-116 colon
XF 498 CNS = test system: XF 498 CNS
MCF7 breast = test system: MCF7 breast
UACC-62 melanoma = test system: UACC-62 melanoma
RPMI-8226 leukemia = test system: RPMI-8226 leukemia
K-562 leukemia = test system: K-562 leukemia
A549 NSCLC = test system: A549 NSCLC
CAKI-1 renal = test system: CAKI-1 renal
HOP-18 NSCLC = test system: HOP-18 NSCLC
UACC-257 melanoma = test system: UACC-257 melanoma
OVCAR-5 ovarian = test system: OVCAR-5 ovarian
HOP-92 NSCLC = test system: HOP-92 NSCLC
P388 leukemia = test system: P388 leukemia
IGROV1 ovarian = test system: IGROV1 ovarian
LOX IMVI melanoma = test system: LOX IMVI melanoma
DLD-1 colon = test system: DLD-1 colon
HT29 colon = test system: HT29 colon
SNB-19 CNS = test system: SNB-19 CNS
COLO 205 colon = test system: COLO 205 colon
NCI-H460 lung = test system: NCI-H460 lung
SN12C renal = test system: SN12C renal
SK-MEL-5 melanoma = test system: SK-MEL-5 melanoma
SN12K1 renal = test system: SN12K1 renal
HCC-2998 colon = test system: HCC-2998 colon
NCI-H226 lung = test system: NCI-H226 lung
SK-OV-3 ovarian = test system: SK-OV-3 ovarian
DMS 273 small cell lung = test system: DMS 273 small cell lung
OVCAR-3 ovarian = test system: OVCAR-3 ovarian
RXF 393 renal = test system: RXF 393 renal
SF-539 CNS = test system: SF-539 CNS
UO-31 renal = test system: UO-31 renal
OVCAR-4 ovarian = test system: OVCAR-4 ovarian
SNB-78 CNS = test system: SNB-78 CNS
HL-60(TB) leukemia = test system: HL-60(TB) leukemia
EKVX NSCLC = test system: EKVX NSCLC
P388/ADR leukemia = test system: P388/ADR leukemia
SK-MEL-2 melanoma = test system: SK-MEL-2 melanoma
M19-MEL melanoma = test system: M19-MEL melanoma
HOP-62 NSCLC = test system: HOP-62 NSCLC
NCI-H522 lung = test system: NCI-H522 lung
CCRF-CEM leukemia = test system: CCRF-CEM leukemia
SW-620 colon = test system: SW-620 colon
NCI-H23 lung = test system: NCI-H23 lung
SF-295 CNS = test system: SF-295 CNS
U251 CNS = test system: U251 CNS

For CCCCC1(C2c3ccccc3Oc3ccccc32)C(=O)N(c2ccccc2)N(c2ccccc2)C1=O, the TGI (SF-268 CNS) was > 100 µM, the TGI (KM12 colon) was > 100 µM and the TGI (SNB-75 CNS) was > 100 µM. For the same compound, the TGI (KM20L2 colon) was > 100 µM, the TGI (MALME-3M melanoma) was > 100 µM and the TGI (OVCAR-8 ovarian) was > 100 µM. The TGI (HCT-15 colon) was > 100 µM, the TGI (NCI/ADR-RES ovarian) was > 100 µM and the TGI (A498 renal) was > 100 µM. For the same compound, the TGI (SK-MEL-28 melanoma) was > 100 µM, the TGI (HCT-116 colon) was > 100 µM and the TGI (XF 498 CNS) was > 100 µM. For the same compound, the TGI (MCF7 breast) was > 100 µM, the TGI (UACC-62 melanoma) was > 100 µM and the TGI (RPMI-8226 leukemia) was > 100 µM. For the same compound, the TGI (K-562 leukemia) was > 100 µM, the TGI (A549 NSCLC) was > 100 µM and the TGI (CAKI-1 renal) was > 29.6 µM. The TGI (HOP-18 NSCLC) was > 100 µM, the TGI (UACC-257 melanoma) was 99 µM and the TGI (OVCAR-5 ovarian) was > 100 µM. The TGI (HOP-92 NSCLC) was > 100 µM, the TGI (P388 leukemia) was 45.2 µM and the TGI (IGROV1 ovarian) was > 100 µM. For the same compound, the TGI (LOX IMVI melanoma) was > 100 µM, the TGI (DLD-1 colon) was > 100 µM and the TGI (HT29 colon) was > 100 µM. The TGI (SNB-19 CNS) was > 100 µM, the TGI (COLO 205 colon) was > 100 µM and the TGI (NCI-H460 lung) was > 100 µM. For the same compound, the TGI (SN12C renal) was > 100 µM, the TGI (SK-MEL-5 melanoma) was > 100 µM and the TGI (SN12K1 renal) was > 100 µM. For the same compound, the TGI (HCC-2998 colon) was > 94.5 µM, the TGI (NCI-H226 lung) was > 100 µM and the TGI (SK-OV-3 ovarian) was > 100 µM. For the same compound, the TGI (DMS 273 small cell lung) was > 100 µM, the TGI (OVCAR-3 ovarian) was > 100 µM and the TGI (RXF 393 renal) was > 100 µM. The TGI (SF-539 CNS) was > 100 µM, the TGI (UO-31 renal) was > 100 µM and the TGI (OVCAR-4 ovarian) was > 100 µM. The TGI (SNB-78 CNS) was > 88.5 µM, the TGI (HL-60(TB) leukemia) was > 100 µM and the TGI (EKVX NSCLC) was > 100 µM. The TGI (P388/ADR leukemia) was > 100 µM, the TGI (SK-MEL-2 melanoma) was > 100 µM and the TGI (M19-MEL melanoma) was > 100 µM. The TGI (HOP-62 NSCLC) was > 100 µM, the TGI (NCI-H522 lung) was 13.1 µM and the TGI (CCRF-CEM leukemia) was > 100 µM. For the same compound, the TGI (SW-620 colon) was > 100 µM, the TGI (NCI-H23 lung) was > 100 µM and the TGI (SF-295 CNS) was > 100 µM. For the same compound, the TGI (U251 CNS) was > 100 µM.

Source: PubChem BioAssay (NCI)
